The target in this assay is T1, soluble guanylate cyclase (sGC), α1 and β1 subunits of guanylate cyclase expressed in Sf9 cells (Homo sapiens, UniProt Q02108+Q02153).
T1 construct: made in house; host or cells: Sf9 insect cells (baculovirus co-infection)
T1 sequence (Q02108 1-690): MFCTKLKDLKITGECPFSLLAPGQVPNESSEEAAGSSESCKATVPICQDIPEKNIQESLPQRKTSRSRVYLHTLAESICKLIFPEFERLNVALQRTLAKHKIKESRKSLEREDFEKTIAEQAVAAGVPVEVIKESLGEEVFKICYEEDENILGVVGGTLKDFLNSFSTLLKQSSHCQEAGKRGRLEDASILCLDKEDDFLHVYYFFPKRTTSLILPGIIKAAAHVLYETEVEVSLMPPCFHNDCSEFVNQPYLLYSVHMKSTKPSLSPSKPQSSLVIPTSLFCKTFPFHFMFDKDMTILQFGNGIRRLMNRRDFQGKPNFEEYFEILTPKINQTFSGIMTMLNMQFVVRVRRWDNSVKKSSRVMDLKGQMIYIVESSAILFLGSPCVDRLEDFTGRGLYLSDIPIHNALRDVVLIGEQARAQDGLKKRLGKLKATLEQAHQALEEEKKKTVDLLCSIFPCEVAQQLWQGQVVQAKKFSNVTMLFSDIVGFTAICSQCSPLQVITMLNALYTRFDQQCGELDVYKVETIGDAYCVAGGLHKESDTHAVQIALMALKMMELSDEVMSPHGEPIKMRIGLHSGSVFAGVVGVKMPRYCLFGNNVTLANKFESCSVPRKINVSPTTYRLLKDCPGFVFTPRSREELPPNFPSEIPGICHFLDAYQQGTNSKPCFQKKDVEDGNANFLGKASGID
T1 sequence (Q02153 1-619): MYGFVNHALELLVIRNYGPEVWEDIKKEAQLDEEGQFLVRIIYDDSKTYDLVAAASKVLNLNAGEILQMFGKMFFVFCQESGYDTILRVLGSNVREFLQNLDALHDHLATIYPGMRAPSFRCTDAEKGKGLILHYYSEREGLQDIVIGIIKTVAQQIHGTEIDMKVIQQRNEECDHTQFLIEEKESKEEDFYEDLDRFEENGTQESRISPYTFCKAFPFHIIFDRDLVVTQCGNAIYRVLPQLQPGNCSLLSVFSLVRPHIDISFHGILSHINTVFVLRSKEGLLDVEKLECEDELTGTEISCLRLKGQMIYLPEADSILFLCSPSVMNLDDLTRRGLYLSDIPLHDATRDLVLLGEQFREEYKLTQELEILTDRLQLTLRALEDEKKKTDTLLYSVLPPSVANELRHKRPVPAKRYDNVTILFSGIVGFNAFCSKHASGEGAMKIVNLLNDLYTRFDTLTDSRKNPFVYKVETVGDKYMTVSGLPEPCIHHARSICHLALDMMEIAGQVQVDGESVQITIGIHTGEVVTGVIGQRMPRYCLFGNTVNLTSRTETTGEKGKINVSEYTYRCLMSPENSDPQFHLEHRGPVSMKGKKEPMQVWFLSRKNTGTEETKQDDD
The assay can be described thus: Guanylate cyclase assay (formation of cyclic GMP from GTP). The format is biochemical. As to conditions: for Mean activation at 100 μM: (activity of compound at 100 μM with 1 μM SNP)−(activity of compound at 100 μM)/(activity of SNP at 1 μM)−(basal activity of sGC); for Mean efficacy of compound combined with 1 μM of SNP, [%]: compound at 100 μM with 1 μM sodium nitro prusside (SNP); for Emax at 100 µM: read-out: Mean basal efficacy of compound alone at 100 μM, [%]. How it is done:
Sf9 cells were cultured in Sf-90011 medium supplemented with 10% (v/v) fetal calf serum at 28° C. to give a count of 6×10^5 cells/ml. The cells were then infected with a mixture of the virus stocks for the α1 and β1 subunits of guanylate cyclase at a multiplicity of infection of 0.1 pfu/cell. The cells were harvested 72 hours after infection and were pelleted by centrifugation. The resulting cell pellets were homogenized with Polytron homogenizer in 3 volumes of 20 mM Tris-HCl (pH 7.6) containing 1 mM EDTA, 5 mM dithiothreitol, 90 mM NaCl, 10% glycerol, and protease inhibitors mix (Roche Molecular Biochemicals). The homogenate was centrifuged at 50,000×g for 60 minutes and the supernatant was aliquotted and stored at −80° C.
Compounds of the present invention were dissolved in DMSO to make 100 mM and saved as stocks at −20° C. When compounds were tested, prepared 10-fold concentrated solutions with 10% DMSO. Then added 10 μl of 10-fold concentrated compound solutions to the reaction mixture of total 100 μl.
Guanylate cyclase activity was measured by the formation of cyclic GMP from GTP in a total volume of 100 μl. Guanylate cyclase-expressed Sf9 cell high-speed supernatant was used as an enzyme source for the assay. The reaction mixture containing 0.1 μl enzyme (Sf9 high-speed sup), compound solution, 50 mM Tris-HCl (pH 7.6), 4 mM MgCl2, 0.5 mM IBMX, 15 mM creatine phosphate, 20 μg creatine phosphokinase, 0.1% BSA and 1 mM GTP was incubated at 37° C. for 15 minutes. After the reaction, 0.9 ml of 50 mM sodium acetate buffer (pH 5.8) was added followed by boiling for 3 minutes to stop the reaction. The solution was centrifuged at 3000 rpm for 15 minutes at room temperature and cyclic GMP in 20 μl of the resulting supernatant was measured according to the protocol of Amersham cyclic GMP enzymeimmunoassay system (purchased from Sigma, catalogue number RPN 226).
Compounds of the present invention were tested at 100 μM with and without 1 μM sodium nitro prusside (SNP). 1-Benzyl-3-hydroxymethyl-2-furylindazole (YC-1) was included as a standard for each assay. The data was normalized with the activity of 100 μM YC-1 (without SNP) as 100%. Mean basal efficacy, in Table 1, was expressed as a percentage of 100 μM YC-1 (without SNP).
The mean activation, in Table 1, was calculated based on the formula: (activity of compound of the present invention at 100 μM with 1 μM SNP)−(activity of compound of the present invention at 100 μM)/(activity of SNP at 1 μM)−(basal activity of sGC).

Where [1] appears, read: normalized with the activity of 100 μM YC-1 (without SNP) as 100%.
[2] abbreviates: compound at 100 μM without SNP, normalized with the activity of 100 μM YC-1 (without SNP) as 100%.

In the case of “2-[1-((2E)-3-{2-[(3-methylbutyl)thio]phenyl}-2-propenoyl)-4-piperidinyl]ethanol [Example 62]”, the “Mean activation at 100 μM” value is reported as 4.7. For the same compound, the “Mean efficacy of compound combined with 1 μM of SNP, [%]” value (from here on “Mean efficacy … [%]”) under setting [1] amounted to 161%. Further, under setting [2], the “Mean basal efficacy of compound alone at 100 μM, [%]” value is 136%.

Regarding `O=C(CCc1ccccc1Sc1ccc(Cl)cc1)NCCCCO` [Example 1, 3-{2-[(4-chlorophenyl)thio]phenyl}-N-(4-hydroxybutyl)propanamide], the “Mean activation at 100 μM” value amounted to 2.4. Besides, under setting [1], the “Mean efficacy … [%]” value is reported as 25%. Under setting [2], the Emax at 100 µM is 4%.

Regarding `CC(CCCC(C)(C)O)NC(=O)CCc1ccccc1Sc1ccc(Cl)cc1` (stereo not drawn) [Example 2, 3-{2-[(4-chlorophenyl)thio]phenyl}-N-(5-hydroxy-1,5-dimethylhexyl)propanamide], the “Mean activation at 100 μM” value stood at 2.6. Besides, under setting [1], the “Mean efficacy … [%]” value was determined as 84%. Also, the Emax at 100 µM under setting [2] was 9%.

`O=C(CCc1ccccc1Sc1ccc(Cl)cc1)NCCCCCO` [Example 3, 3-{2-[(4-chlorophenyl)thio]phenyl}-N-(5-hydroxypentyl)propanamide]: the “Mean activation at 100 μM” value was 2.3. Besides, the “Mean efficacy … [%]” value under setting [1] stood at 29%. For the same compound, under setting [2], the Emax at 100 µM came out at 2%.

On to `O=C(CCc1ccccc1Sc1ccc(Cl)cc1)NC1CCC(O)CC1` (stereo not drawn) [Example 4, 3-{2-[(4-chlorophenyl)thio]phenyl}-N-(4-hydroxycyclohexyl)propanamide], for which the “Mean activation at 100 μM” value was determined as 2.6. Further, the “Mean efficacy … [%]” value under setting [1] worked out at 28%. Also, the Emax at 100 µM under setting [2] was 1%.

As to `Cc1ccc(Sc2ccccc2CCC(=O)NCCCCO)cc1` [Example 5, N-(4-hydroxybutyl)-3-{2-[(4-methylphenyl)thio]phenyl}propanamide], the “Mean activation at 100 μM” value was 5.1. The “Mean efficacy … [%]” value under setting [1] turned out to be 96%. Also, the Emax at 100 µM under setting [2] was 14%.

As for `CS(=O)(=O)NCCCCNC(=O)CCc1ccccc1Sc1ccc(Cl)cc1` [Example 6, 3-{2-[(4-chlorophenyl)thio]phenyl}-N-{4-[(methylsulfonyl)amino]butyl}propanamide], the “Mean activation at 100 μM” value is reported as 2.7. For the same compound, under setting [1], the “Mean efficacy … [%]” value amounted to 11%. Besides, the Emax at 100 µM under setting [2] stood at 2%.

With `O=C(CCc1cccc(F)c1Sc1ccc(Cl)cc1)NCCCCO` [Example 7, 3-{2-[(4-chlorophenyl)thio]-3-fluorophenyl}-N-(4-hydroxybutyl)propanamide], the “Mean activation at 100 μM” value amounted to 3.8. The “Mean efficacy … [%]” value under setting [1] was determined as 80%. Further, the Emax at 100 µM under setting [2] stood at 19%.

As for `O=C(CCc1cc(F)ccc1Sc1ccc(Cl)cc1)NCCCCO` [Example 8, 3-{2-[(4-chlorophenyl)thio]-5-fluorophenyl}-N-(4-hydroxybutyl)propanamide], the “Mean activation at 100 μM” value is 3.1. The “Mean efficacy … [%]” value under setting [1] stood at 16%. Besides, the Emax at 100 µM under setting [2] came out at 0%.

Regarding `CC(O)CCCNC(=O)CCc1ccccc1Sc1ccc(Cl)cc1` (stereo not drawn) [Example 9, 3-{2-[(4-chlorophenyl)thio]phenyl}-N-(4-hydroxypentyl)propanamide], the “Mean activation at 100 μM” value is listed as 4.0. In addition, the “Mean efficacy … [%]” value under setting [1] is 22%. For the same compound, the Emax at 100 µM under setting [2] turned out to be 4%.

For `CC(CC(=O)N(C)C1CCN(C)CC1)c1ccccc1Sc1ccc(Cl)cc1` (stereo not drawn) [Example 10, 3-{2-[(4-chlorophenyl)thio]phenyl}-N-methyl-N-(1-methyl-4-piperidinyl)butanamide], the “Mean activation at 100 μM” value is recorded as 1.6. Moreover, under setting [1], the “Mean efficacy … [%]” value turned out to be 7%. For the same compound, under setting [2], the Emax at 100 µM was found to be 0%.

Consider `CC(CC(=O)NCCc1ccncc1)c1ccccc1Sc1ccc(Cl)cc1` (stereo not drawn) [Example 11, 3-{2-[(4-chlorophenyl)thio]phenyl}-N-[2-(4-pyridinyl)ethyl]butanamide], for which the “Mean activation at 100 μM” value is listed as 2.8. Also, the “Mean efficacy … [%]” value under setting [1] is listed as 6%. Further, under setting [2], the Emax at 100 µM was 1%.
